Assay results: patent US7943603B2, “Medical uses of a selective estrogen receptor modulator in combination with sex steroid precursors” (Endorecherche, Inc., priority 1998, dated 2011)
“Also recorded” adds a separate entry of the source.

What was measured:
[1] = system: ovariectomized (OVX) nude mice supplemented with estrone; assay: Uterine, vaginal and body weight in OVX nude mice bearing ZR-75-1 xenografts; settings: OVX+E1 nude mice
Experimental: A posteriori pairwise comparisons were performed using Fisher's test for least significant difference. Main effects and the interaction of treatments on body weight and organ weight were analyzed using a standard two-way ANOVA with interactions. All ANOVAs were performed using SAS program (SAS Institute, Cary, N.C., USA). Significance of differences were declared using a 2-tailed test with an overall level of 5%.

[2] = system: human ZR-75-1 breast tumor xenografts; assay: Growth of human ZR-75-1 breast tumor xenografts in OVX nude mice supplemented with estrone; settings: alone or with EM-800 15 μg, OVX+E1 0.5 μg nude mice, 9.5 months
ovariectomized rats [3] = assay: Bone histomorphometry of tibia after 12-month treatment of ovariectomized rats; format: in vivo, rat; settings: 12 months, histology
Experimental: Intact animals are added as additional controls. Data are presented as mean±SEM **p<0.01 versus OVX Control.
Modified trichrome Masson-Goldner, magn. ×80. T: Trabeculae, GP: Growth Plate.

[4] = Example 5 table: serum, urinary and GnRH mRNA parameters in OVX groups; format: in vivo; settings: doses not given; for LH: LD: Limit of Detection: 0.01 ng/ml
[5] = aged Sprague-Dawley rats; reduced from 600 g, food intake unaffected; cited from earlier work
[6] = system: DMBA-induced mammary carcinoma; assay: Development of DMBA-induced mammary carcinoma in the rat; format: in vivo; settings: 279 days after DMBA
Experimental: (§1) Female Sprague-Dawley rats [Crl:CD(SD)Br] were obtained at 44-46 days of age from Charles River Canada Inc. (St. Constant, Quebec) and housed 2 per cage in a light (12 h light/day; lights on at 07:15 h)-and temperature (22±2° C.)-controlled environment. Animals received Purina rodent chow and tap water ad libitum. The animal studies were conducted in a Canadian Council on Animal Care (CCAC)-approved facility in agreement with the CCAC Guide for Care and Use of Experimental Animals.
Mammary carcinomas were induced by a single intragastric administration of 20 mg of DMBA (Sigma Chemical Co., St. Louis, Mo.) in 1 ml of corn oil at 50-52 days of age. Two months later, tumor measurement was performed biweekly. The two largest perpendicular diameters of each tumor were recorded with calipers to estimate tumor size as described (Asselin et al., Endocrinology 101: 666-671, 1977). Tumor site, size and number were recorded.
(§2) The animals were randomly divided into groups each containing 20 rats with the exception of 40 animals in the control group. […] Treatment was initiated 3 days before the oral administration of DMBA. EM-800 was synthesized in the Medicinal Chemistry Division of our laboratory while DHEA was purchased from Steraloids Inc., Wilton, N.H.
Many of the control animals and some of EM-800- or DHEA-treated animals were sacrificed by cervical dislocation under isoflurane-induced anesthesia 6 months after DMBA administration because of the too large size of tumors. The values of tumor size and number of these rats at sacrifice, together with those measured at later time intervals from the surviving animals, were used for the later analysis of the incidence of tumors, average tumor number per tumor-bearing rat and average tumor size per tumor-bearing animal. […] Rats were sacrificed 279 days after DMBA administration.
Statistical significance was measured according to the multiple range test of Duncan-Kramer (Biometrics 12: 307-310, 1956). Analysis of the incidence of development of mammary tumors was performed using the Fisher's exact test (Conover, Practical nonparametric statistics, 2nd Edition 153-170, 1980). The data are presented as means±S.E.M.

rat [7] = assay: Urine and serum biochemical parameters of bone metabolism; format: in vivo; settings: DHEA 10 mg percutaneously, EM-800 75 μg orally, once daily, alone or in combination, 9 months
Excerpt: as §2
(§3) Twenty-four-hour urinary samples were collected at the end of the experiment from the first 9 rats of each group following transfer in metabolic cages (Allentown Caging Equipment Co., Allentown, N.J.). Two urinary samples were collected and analyzed on different days for each animal in order to minimize the influence of daily variation. Therefore, each value shown represents the mean of the two measurements performed on two different days. 0.5 ml of toluene was added into the urine collecting tubes to prevent urine evaporation and bacterial growth and the urinary volume was recorded. Trunk blood was collected at sacrifice and was allowed to clot at 4° C. overnight before centrifugation at 3000 rpm for 30 min.
(§4) Fresh samples were used for the assay of urinary creatinine, calcium, and phosphorus as well as serum total alkaline phosphatase (tALP) activity, cholesterol and triglycerides. These biochemical parameters were measured automatically with a Monarch 2000 Chemistry System (Instrumentation Laboratory Co. Lexington, Mass.) under Good Laboratory Practice conditions. Urinary hydroxyproline was measured as described (Podenphant et al., Clinica Chimica Acta 142: 145-148, 1984).

rat [8] = assay: Serum triglyceride and cholesterol levels after 9-month treatment; format: in vivo; settings: DHEA 10 mg percutaneously, EM-800 75 μg orally, once daily, alone or in combination, 9 months
Excerpt: as §2, §3, §4

female rat = assay: Bone mineral density (DEXA) after 9-month treatment; format: in vivo; settings: DHEA 10 mg percutaneously, EM-800 75 μg orally, once daily, alone or in combination, 9 months
Experimental: as §1, §2
Rats were anesthetized with an i.p. injection of ketamine hydrochloride and diazepam at doses of 50 and 4 mg/kg B.W., respectively. The whole skeleton and the right femur were scanned using dual energy X-ray absorptiometry (DEXA; QDR 2000-7.10C, Hologic, Waltham, Mass.) equipped with a Regional High Resolution software. The scan field sizes were 28.110×17.805 cm and 5.0×1.902 cm, the resolutions were 0.1511×0.0761 cm and 0.0254×0.0127 cm, while the scan speeds were 0.3608 and 0.0956 mm/sec for total skeleton and femur, respectively. Both bone mineral content (BMC) and bone mineral density (BMD) of total skeleton, lumbar spine, and femur were measured on the scan images of total skeleton and femur.

ovariectomized rats [9] = settings: treatment with 5-diol
estrogen receptor = molecular target: T1, estrogen receptor (Homo sapiens, UniProt P03372); assay: Testing of antiestrogens for function as SERM
T1 sequence (P03372 1-595): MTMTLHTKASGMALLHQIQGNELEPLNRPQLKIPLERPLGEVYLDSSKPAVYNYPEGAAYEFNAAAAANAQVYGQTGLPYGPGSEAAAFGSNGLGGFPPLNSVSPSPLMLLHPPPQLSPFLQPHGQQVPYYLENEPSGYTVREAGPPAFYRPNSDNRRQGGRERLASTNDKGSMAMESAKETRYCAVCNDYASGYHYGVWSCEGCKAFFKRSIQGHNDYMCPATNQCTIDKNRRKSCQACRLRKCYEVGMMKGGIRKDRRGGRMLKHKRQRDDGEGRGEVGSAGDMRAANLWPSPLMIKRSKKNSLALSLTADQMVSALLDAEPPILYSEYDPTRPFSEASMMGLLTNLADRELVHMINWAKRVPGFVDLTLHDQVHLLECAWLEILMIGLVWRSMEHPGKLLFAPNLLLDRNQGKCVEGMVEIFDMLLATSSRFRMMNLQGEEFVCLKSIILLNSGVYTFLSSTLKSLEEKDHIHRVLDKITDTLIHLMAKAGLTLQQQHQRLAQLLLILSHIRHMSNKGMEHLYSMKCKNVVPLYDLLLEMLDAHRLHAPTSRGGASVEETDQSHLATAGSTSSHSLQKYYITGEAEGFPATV

Solid state stability = format: physicochemical

C[C@]12CC[C@H](O)CC1=CC[C@@H]1[C@@H]2CC[C@]2(C)C(=O)CC[C@@H]12 [DHEA, dehydroepiandrosterone]
effect of addition of DHEA on estrone-stimulated vaginal weight ([1]; DHEA 0.3, 1.0 or 3.0 mg): no significant effect | effect on body weight adjusted for tumor weight ([1]; 9.5 months): No significant effect | Complete response, (%) ([2]; DHEA 0.3 mg percutaneously): 28.6% | Complete response, number ([2]; DHEA 0.3 mg percutaneously): 4 | Partial response, (%) ([2]; DHEA 0.3 mg percutaneously): 0 (0) % | Partial response, number ([2]; DHEA 0.3 mg percutaneously): 0 (0) | Progression, (%) ([2]; DHEA 0.3 mg percutaneously): 50.0% | Progression, number ([2]; DHEA 0.3 mg percutaneously): 7 | Stable response, (%) ([2]; DHEA 0.3 mg percutaneously): 21.4% | Stable response, number ([2]; DHEA 0.3 mg percutaneously): 3 | Complete response, (%) ([2]; DHEA 1.0 mg percutaneously): 26.7% | Complete response, number ([2]; DHEA 1.0 mg percutaneously): 4 | Partial response, (%) ([2]; DHEA 1.0 mg percutaneously): 0 (0) % | Partial response, number ([2]; DHEA 1.0 mg percutaneously): 0 (0) | Progression, (%) ([2]; DHEA 1.0 mg percutaneously): 53.3% | Progression, number ([2]; DHEA 1.0 mg percutaneously): 8 | Stable response, (%) ([2]; DHEA 1.0 mg percutaneously): 20.0% | Stable response, number ([2]; DHEA 1.0 mg percutaneously): 3 | Complete response, (%) ([2]; DHEA 3.0 mg percutaneously): 20.0% | Complete response, number ([2]; DHEA 3.0 mg percutaneously): 3 | Partial response, (%) ([2]; DHEA 3.0 mg percutaneously): 0 (0) % | Partial response, number ([2]; DHEA 3.0 mg percutaneously): 0 (0) | Progression, (%) ([2]; DHEA 3.0 mg percutaneously): 66.7% | Progression, number ([2]; DHEA 3.0 mg percutaneously): 10 | Stable response, (%) ([2]; DHEA 3.0 mg percutaneously): 13.3% | Stable response, number ([2]; DHEA 3.0 mg percutaneously): 2 | effect on trabecular bone volume of proximal tibia metaphysis (FIG. 8) (ovariectomized rats [3]): significant increase in trabecular bone volume | GnRH mRNA levels silver grains per cell [4]: 34.5 ± 0.7 silver grains per cell | Triglycerides [4]: 0.8 ± 0.1 mmol/L | Urinary OH-proline/creatinin [4]: 7.3 ± 1.0 μmol/mmol | LH [4]: 0.02 ± 0.01 ng/mL | body weight [5]: 550 g | incidence of DMBA-induced mammary carcinoma (animals with palpable tumors) ([6]; DHEA 10 mg percutaneously, EM-800 75 μg orally, once daily, control 95%): 57% | average tumor number per tumor-bearing animal ([6]; end of experiment, DHEA 10 mg, EM-800 75 μg daily, control 4.7±0.5): 3.4±0.7 tumors/animal | average tumor area per tumor-bearing animal ([6]; end of experiment, DHEA 10 mg, EM-800 75 μg daily, control 12.8±1.3): 10.2±2.1 cm^2 | decrease of daily urinary calcium excretion versus control (rat [7]): no effect | decrease of daily urinary phosphorus excretion versus control (rat [7]): no effect | decrease of urinary hydroxyproline/creatinine ratio versus control (rat [7]): no effect; also recorded: did not affect; also recorded: did not show any effect | decrease of serum cholesterol levels (rat [8]): unaffected | decrease of serum triglyceride levels (rat [8]): 60% | BMD FEMUR (female rat): 0.3408 ± 0.0038 g/cm2 | BMD LUMBAR SPINE (female rat): 0.2163 ± 0.0049 g/cm2 | BMD TOTAL SKELETON (female rat): 0.1465 ± 0.0010 g/cm2 | increase in BMD of femur versus control (female rat): 8.2% | increase in BMD of lumbar spine versus control (female rat): 10.6% | increase in BMD of total skeleton versus control (female rat): 6.9%

C[C@]12CC[C@H]3[C@@H](CC=C4C[C@@H](O)CC[C@@]43C)[C@@H]1CC[C@@H]2O [5-diol, androst-5-ene-3β,17β-diol]
serum alkaline phosphatase activity (ovariectomized rats [9]): marked stimulation

CC/C(=C(/c1ccc(OCCN(C)C)cc1)c1cccc(O)c1)c1ccccc1 [Droloxifene]
function as SERM (estrogen receptor): found to function as SERMs

C[C@]12CC[C@@H]3c4ccc(O)cc4CC[C@H]3[C@@H]1CC[C@@H]2O [E2, 17β-estradiol]
Cholesterol [4]: 2.02 ± 0.15 mmol/L | GnRH mRNA levels silver grains per cell [4]: 40.4 ± 0.8 silver grains per cell | Serum Alkaline phosphatase [4]: 41 ± 5 IU/L | Triglycerides [4]: 0.8 ± 0.1 mmol/L | Urinary OH-proline/creatinin [4]: 9.2 ± 0.9 μmol/mmol | LH [4]: 2.37 ± 0.45 ng/mL

CC1=C(c2ccc(O)cc2)[C@H](c2ccc(OCCN3CCCCC3)cc2)Oc2cc(O)ccc21.Cl [EM-01538, (S)-(+)-7-hydroxy-3-(4′-hydroxyphenyl)-4-methyl-2-(4″-(2′″-piperidinoethoxy)phenyl)-2H-1-benzopyran hydrochloride]
solid state stability (Solid state stability): good solid state stability
